Experiments:
[1] = test system: barnyard grass; assay: Test Example 3: herbicidal effect by foliage application, Wagner pot (Table 18, symbol H); format: in vivo, barnyard grass (Echinochloa crus-galli)
Outline: (§1)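 Plants were sown in alluvial soil held under 0.1–0.5 cm standing water and grown 14 days in a greenhouse at 25–30 °C. An emulsifiable formulation, water-diluted to the set dose, was then sprayed onto the foliage, and effects were scored three weeks later using previously defined criteria.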

[2] = test system: Chinese sprangletop; assay: Test Example 3: herbicidal effect by foliage application, Wagner pot (Table 18, symbol D); format: in vivo, chinese sprangletop (Leptochloa chinensis)
Outline: as §1

[3] = test system: rice flat sedge; assay: Test Example 3: herbicidal effect by foliage application, Wagner pot (Table 18, symbol E); format: in vivo, rice flat sedge (Cyperus iria)
Outline: as §1

[4] = test system: southern crabgrass; assay: Test Example 4: herbicidal effect by soil treatment (Table 19, symbol F); format: in vivo, southern crabgrass (Digitaria ciliaris)
Outline: (§2)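 Step 1: sow seeds in sterilized diluvial soil, cover ~1.5 cm. Step 2: spray diluted emulsion onto soil surface at predetermined rate. Step 3: greenhouse, 25–30° C, three weeks. Step 4: grade effect on each plant by earlier criteria.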

[5] = test system: green foxtail; assay: Test Example 4: herbicidal effect by soil treatment (Table 19, symbol G); format: in vivo, green foxtail (Setaria viridis)
Outline: as §2

[6] = test system: barnyard grass; assay: Test Example 4: herbicidal effect by soil treatment (Table 19, symbol H); format: in vivo, barnyard grass (Echinochloa crus-galli)
Outline: as §2

[7] = test system: wild oat; assay: Test Example 4: herbicidal effect by soil treatment (Table 19, symbol I); format: in vivo, wild oat (Avena fatua)
Outline: as §2

[8] = test system: blackgrass; assay: Test Example 4: herbicidal effect by soil treatment (Table 19, symbol J); format: in vivo, blackgrass (Alopecurus myosuroides)
Outline: as §2

[9] = test system: Italian ryegrass; assay: Test Example 4: herbicidal effect by soil treatment (Table 19, symbol K); format: in vivo, Italian ryegrass (Lolium multiflorum)
Outline: as §2

[10] = test system: windgrass; assay: Test Example 4: herbicidal effect by soil treatment (Table 19, symbol L); format: in vivo, windgrass (Apera spica-venti)
Outline: as §2

[11] = test system: velvetleaf; assay: Test Example 4: herbicidal effect by soil treatment (Table 19, symbol M); format: in vivo, velvetleaf (Abutilon theophrasti)
Outline: as §2

[12] = test system: redroot pigweed; assay: Test Example 4: herbicidal effect by soil treatment (Table 19, symbol N); format: in vivo, redroot pigweed (Amaranthus retroflexus)
Outline: as §2

[13] = test system: lambsquarters; assay: Test Example 4: herbicidal effect by soil treatment (Table 19, symbol O); format: in vivo, lambsquarters (Chenopodium album)
Outline: as §2

[14] = test system: chickweed; assay: Test Example 4: herbicidal effect by soil treatment (Table 19, symbol P); format: in vivo, common chickweed (Stellaria media)
Outline: as §2

[15] = test system: persian speedwell; assay: Test Example 4: herbicidal effect by soil treatment (Table 19, symbol R); format: in vivo, Persian speedwell (Veronica persica)
Outline: as §2

[16] = test system: southern crabgrass; assay: Test Example 5: herbicidal effect by foliage application, plastic box (Table 20, symbol F); format: in vivo, southern crabgrass (Digitaria ciliaris); conditions: foliage application, 3 weeks after application
Outline: (§3)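 Foliar spray test: emulsion formulation diluted in water to a set application rate, sprayed onto 14-day-old plants raised in diluvial soil at 25° C to 30° C under glass. Both herbicidal effect and crop effect rated visually three weeks later.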

[17] = test system: green foxtail; assay: Test Example 5: herbicidal effect by foliage application, plastic box (Table 20, symbol G); format: in vivo, green foxtail (Setaria viridis); conditions: foliage application, 3 weeks after application
Outline: as §3

[18] = test system: barnyard grass; assay: Test Example 5: herbicidal effect by foliage application, plastic box (Table 20, symbol H); format: in vivo, barnyard grass (Echinochloa crus-galli); conditions: foliage application, 3 weeks after application
Outline: as §3

[19] = test system: wild oat; assay: Test Example 5: herbicidal effect by foliage application, plastic box (Table 20, symbol I); format: in vivo, wild oat (Avena fatua); conditions: foliage application, 3 weeks after application
Outline: as §3

[20] = test system: blackgrass; assay: Test Example 5: herbicidal effect by foliage application, plastic box (Table 20, symbol J); format: in vivo, blackgrass (Alopecurus myosuroides); conditions: foliage application, 3 weeks after application
Outline: as §3

[21] = test system: Italian ryegrass; assay: Test Example 5: herbicidal effect by foliage application, plastic box (Table 20, symbol K); format: in vivo, Italian ryegrass (Lolium multiflorum); conditions: foliage application, 3 weeks after application
Outline: as §3

[22] = test system: windgrass; assay: Test Example 5: herbicidal effect by foliage application, plastic box (Table 20, symbol L); format: in vivo, windgrass (Apera spica-venti); conditions: foliage application, 3 weeks after application
Outline: as §3

[23] = test system: velvetleaf; assay: Test Example 5: herbicidal effect by foliage application, plastic box (Table 20, symbol M); format: in vivo, velvetleaf (Abutilon theophrasti); conditions: foliage application, 3 weeks after application
Outline: as §3

[24] = test system: lambsquarters; assay: Test Example 5: herbicidal effect by foliage application, plastic box (Table 20, symbol O); format: in vivo, lambsquarters (Chenopodium album); conditions: foliage application, 3 weeks after application
Outline: as §3

[25] = test system: persian speedwell; assay: Test Example 5: herbicidal effect by foliage application, plastic box (Table 20, symbol R); format: in vivo, Persian speedwell (Veronica persica); conditions: foliage application, 3 weeks after application
Outline: as §3

[26] = amount of applied herbicide 320 g/ha

COc1nn(C)c(=O)c(-c2c(-c3ccsc3)sc3ccccc23)c1O [1-192]
herbicidal effect on H (barnyard grass), rating 0-5 ([1]; 80 g/ha): 1 (Herbicidal rate of 5% or more and less than 20%)
herbicidal effect on D (Chinese sprangletop), rating 0-5 ([2]; 80 g/ha): 4 (Herbicidal rate of 70% or more and less than 90%)
herbicidal effect on E (rice flat sedge), rating 0-5 ([3]; 80 g/ha): 4 (Herbicidal rate of 70% or more and less than 90%)
F: southern crabgrass, herbicidal effect rating ([4]; AAH 80 g/ha): 0 (Herbicidal rate of 5% or less (almost no effect))
G: green foxtail, herbicidal effect rating ([5]; AAH 80 g/ha): 0 (Herbicidal rate of 5% or less (almost no effect))
H: barnyard grass, herbicidal effect rating ([6]; AAH 80 g/ha): 0 (Herbicidal rate of 5% or less (almost no effect))
I: wild oat, herbicidal effect rating ([7]; AAH 80 g/ha): 0 (Herbicidal rate of 5% or less (almost no effect))
J: blackgrass, herbicidal effect rating ([8]; AAH 80 g/ha): 0 (Herbicidal rate of 5% or less (almost no effect))
K: Italian ryegrass, herbicidal effect rating ([9]; AAH 80 g/ha): 0 (Herbicidal rate of 5% or less (almost no effect))
L: windgrass, herbicidal effect rating ([10]; AAH 80 g/ha): 0 (Herbicidal rate of 5% or less (almost no effect))
M: velvetleaf, herbicidal effect rating ([11]; AAH 80 g/ha): 0 (Herbicidal rate of 5% or less (almost no effect))
N: redroot pigweed, herbicidal effect rating ([12]; AAH 80 g/ha): 0 (Herbicidal rate of 5% or less (almost no effect))
O: lambsquarters, herbicidal effect rating ([13]; AAH 80 g/ha): 0 (Herbicidal rate of 5% or less (almost no effect))
P: chickweed, herbicidal effect rating ([14]; AAH 80 g/ha): 3 (Herbicidal rate of 40% or more and less than 70%)
R: persian speedwell, herbicidal effect rating ([15]; AAH 80 g/ha): 0 (Herbicidal rate of 5% or less (almost no effect))
effect on southern crabgrass (F) ([16]; 80 g/ha): 0 (Herbicidal rate of 5% or less (almost no effect))
effect on green foxtail (G) ([17]; 80 g/ha): 0 (Herbicidal rate of 5% or less (almost no effect))
effect on barnyard grass (H) ([18]; 80 g/ha): 0 (Herbicidal rate of 5% or less (almost no effect))
effect on wild oat (I) ([19]; 80 g/ha): 0 (Herbicidal rate of 5% or less (almost no effect))
effect on blackgrass (J) ([20]; 80 g/ha): 0 (Herbicidal rate of 5% or less (almost no effect))
effect on Italian ryegrass (K) ([21]; 80 g/ha): 0 (Herbicidal rate of 5% or less (almost no effect))
effect on windgrass (L) ([22]; 80 g/ha): 0 (Herbicidal rate of 5% or less (almost no effect))
effect on velvetleaf (M) ([23]; 80 g/ha): 0 (Herbicidal rate of 5% or less (almost no effect))
effect on lambsquarters (O) ([24]; 80 g/ha): 0 (Herbicidal rate of 5% or less (almost no effect))
effect on persian speedwell (R) ([25]; 80 g/ha): 3 (Herbicidal rate of 40% or more and less than 70%)

C=Cc1ccc(-c2sc3ccc(F)cc3c2-c2c(OC(=O)CCC)c(C)nn(C)c2=O)cc1 [2-019]
herbicidal effect on H (barnyard grass), rating 0-5 ([1]; 320 g/ha): 5 (Herbicidal rate of 90% or more (almost completely withered))
herbicidal effect on D (Chinese sprangletop), rating 0-5 ([2]; 320 g/ha): 3 (Herbicidal rate of 40% or more and less than 70%)
herbicidal effect on E (rice flat sedge), rating 0-5 ([3]; 320 g/ha): 4 (Herbicidal rate of 70% or more and less than 90%)
herbicidal effect rating, F: southern crabgrass ([4]; 320 g/ha): 0 (Herbicidal rate of 5% or less (almost no effect))
herbicidal effect rating, G: green foxtail ([5]; 320 g/ha): 2 (Herbicidal rate of 20% or more and less than 40%)
herbicidal effect rating, H: barnyard grass ([6]; 320 g/ha): 0 (Herbicidal rate of 5% or less (almost no effect))
herbicidal effect rating, I: wild oat ([7]; 320 g/ha): 0 (Herbicidal rate of 5% or less (almost no effect))
herbicidal effect rating, J: blackgrass ([8]; 320 g/ha): 0 (Herbicidal rate of 5% or less (almost no effect))
herbicidal effect rating, K: Italian ryegrass ([9]; 320 g/ha): 5 (Herbicidal rate of 90% or more (almost completely withered))
herbicidal effect rating, L: windgrass ([10]; 320 g/ha): 1 (Herbicidal rate of 5% or more and less than 20%)
herbicidal effect rating, M: velvetleaf ([11]; 320 g/ha): 0 (Herbicidal rate of 5% or less (almost no effect))
herbicidal effect rating, N: redroot pigweed ([12]; 320 g/ha): 5 (Herbicidal rate of 90% or more (almost completely withered))
herbicidal effect rating, O: lambsquarters ([13]; 320 g/ha): 3 (Herbicidal rate of 40% or more and less than 70%)
herbicidal effect rating, P: chickweed ([14]; 320 g/ha): 4 (Herbicidal rate of 70% or more and less than 90%)
herbicidal effect rating, R: persian speedwell ([15]; 320 g/ha): 5 (Herbicidal rate of 90% or more (almost completely withered))
effect on southern crabgrass (F) ([16]; 320 g/ha): 4 (Herbicidal rate of 70% or more and less than 90%)
effect on green foxtail (G) ([17]; 320 g/ha): 5 (Herbicidal rate of 90% or more (almost completely withered))
effect on barnyard grass (H) ([18]; 320 g/ha): 5 (Herbicidal rate of 90% or more (almost completely withered))
effect on wild oat (I) ([19]; 320 g/ha): 4 (Herbicidal rate of 70% or more and less than 90%)
effect on blackgrass (J) ([20]; 320 g/ha): 0 (Herbicidal rate of 5% or less (almost no effect))
effect on Italian ryegrass (K) ([21]; 320 g/ha): 3 (Herbicidal rate of 40% or more and less than 70%)
effect on windgrass (L) ([22]; 320 g/ha): 4 (Herbicidal rate of 70% or more and less than 90%)
effect on velvetleaf (M) ([23]; 320 g/ha): 5 (Herbicidal rate of 90% or more (almost completely withered))
effect on lambsquarters (O) ([24]; 320 g/ha): 5 (Herbicidal rate of 90% or more (almost completely withered))
effect on persian speedwell (R) ([25]; 320 g/ha): 5 (Herbicidal rate of 90% or more (almost completely withered))

Cc1nn(C)c(=O)c(-c2c(-c3cnccc3Cl)sc3ccc(F)cc23)c1O [2-385]
herbicidal effect on H: barnyard grass [1, 26]: 5 (Herbicidal rate of 90% or more (almost completely withered))
herbicidal effect on D: Chinese sprangletop [2, 26]: 5 (Herbicidal rate of 90% or more (almost completely withered))
herbicidal effect on E: rice flat sedge [3, 26]: 5 (Herbicidal rate of 90% or more (almost completely withered))
herbicidal effect, F: southern crabgrass [4, 26]: 0 (Herbicidal rate of 5% or less (almost no effect))
herbicidal effect, G: green foxtail [5, 26]: 0 (Herbicidal rate of 5% or less (almost no effect))
herbicidal effect, H: barnyard grass [6, 26]: 0 (Herbicidal rate of 5% or less (almost no effect))
herbicidal effect, I: wild oat [7, 26]: 3 (Herbicidal rate of 40% or more and less than 70%)
herbicidal effect, J: blackgrass [8, 26]: 0 (Herbicidal rate of 5% or less (almost no effect))
herbicidal effect, K: Italian ryegrass [9, 26]: 4 (Herbicidal rate of 70% or more and less than 90%)
herbicidal effect, L: windgrass [10, 26]: 1 (Herbicidal rate of 5% or more and less than 20%)
herbicidal effect, M: velvetleaf [11, 26]: 2 (Herbicidal rate of 20% or more and less than 40%)
herbicidal effect, N: redroot pigweed [12, 26]: 3 (Herbicidal rate of 40% or more and less than 70%)
herbicidal effect, O: lambsquarters [13, 26]: 4 (Herbicidal rate of 70% or more and less than 90%)
herbicidal effect, P: chickweed [14, 26]: 3 (Herbicidal rate of 40% or more and less than 70%)
herbicidal effect, R: persian speedwell [15, 26]: 5 (Herbicidal rate of 90% or more (almost completely withered))

From patent publication US20230085307A1, “PYRIDAZINONE COMPOUND AND HERBICIDE” (NISSAN CHEMICAL CORPORATION, priority 2019, published 2023)
